Tested on: CD4 T cells co-cultured with autologous DCs from PBMCs
Assay type: cell-based, human
Settings: positive = Stimulation Index ≥1.5-fold above baseline, 5 µg/mL peptide; for Percentage of donors demonstrating IFN-γ responses, DR1 / Percentage of donors demonstrating IL-2 responses, DR1 / Percentage of donors demonstrating IL-4 responses, DR1 / Percentage of donors demonstrating IL-10 responses, DR1 / Percentage of donors demonstrating TNF-α responses, DR1: DR1 donors N=5; for Percentage of donors demonstrating IFN-γ responses, DR1 / Percentage of donors demonstrating IFN-γ responses, DR3 / Percentage of donors demonstrating IFN-γ responses, DR4 / Percentage of donors demonstrating IFN-γ responses, DR7 / Percentage of donors demonstrating IFN-γ responses, DR8 / Percentage of donors demonstrating IFN-γ responses, DR9 / Percentage of donors demonstrating IFN-γ responses, DR11 / Percentage of donors demonstrating IFN-γ responses, DR13 / Percentage of donors demonstrating IFN-γ responses, DR15: ICCS after 14-day co-culture; for Percentage of donors demonstrating IL-2 responses, DR1 / Percentage of donors demonstrating IL-4 responses, DR1 / Percentage of donors demonstrating IL-10 responses, DR1 / Percentage of donors demonstrating TNF-α responses, DR1 / Percentage of donors demonstrating IL-2 responses, DR3 / Percentage of donors demonstrating IL-4 responses, DR3 / Percentage of donors demonstrating IL-10 responses, DR3 / Percentage of donors demonstrating TNF-α responses, DR3 / Percentage of donors demonstrating IL-2 responses, DR4 / Percentage of donors demonstrating IL-4 responses, DR4 / Percentage of donors demonstrating IL-10 responses, DR4 / Percentage of donors demonstrating TNF-α responses, DR4 / Percentage of donors demonstrating IL-2 responses, DR7 / Percentage of donors demonstrating IL-4 responses, DR7 / Percentage of donors demonstrating IL-10 responses, DR7 / Percentage of donors demonstrating TNF-α responses, DR7 / Percentage of donors demonstrating IL-2 responses, DR8 / Percentage of donors demonstrating IL-4 responses, DR8 / Percentage of donors demonstrating IL-10 responses, DR8 / Percentage of donors demonstrating TNF-α responses, DR8 / Percentage of donors demonstrating IL-2 responses, DR9 / Percentage of donors demonstrating IL-4 responses, DR9 / Percentage of donors demonstrating IL-10 responses, DR9 / Percentage of donors demonstrating TNF-α responses, DR9 / Percentage of donors demonstrating IL-2 responses, DR11 / Percentage of donors demonstrating IL-4 responses, DR11 / Percentage of donors demonstrating IL-10 responses, DR11 / Percentage of donors demonstrating TNF-α responses, DR11 / Percentage of donors demonstrating IL-2 responses, DR13 / Percentage of donors demonstrating IL-4 responses, DR13 / Percentage of donors demonstrating IL-10 responses, DR13 / Percentage of donors demonstrating TNF-α responses, DR13 / Percentage of donors demonstrating IL-2 responses, DR15 / Percentage of donors demonstrating IL-4 responses, DR15 / Percentage of donors demonstrating IL-10 responses, DR15 / Percentage of donors demonstrating TNF-α responses, DR15: ICCS; for Percentage of donors demonstrating IFN-γ responses, DR3 / Percentage of donors demonstrating IL-2 responses, DR3 / Percentage of donors demonstrating IL-4 responses, DR3 / Percentage of donors demonstrating IL-10 responses, DR3 / Percentage of donors demonstrating TNF-α responses, DR3: DR3 donors N=6; for Percentage of donors demonstrating IFN-γ responses, DR4 / Percentage of donors demonstrating IL-2 responses, DR4 / Percentage of donors demonstrating IL-4 responses, DR4 / Percentage of donors demonstrating IL-10 responses, DR4 / Percentage of donors demonstrating TNF-α responses, DR4: DR4 donors N=10; for Percentage of donors demonstrating IFN-γ responses, DR7 / Percentage of donors demonstrating IL-2 responses, DR7 / Percentage of donors demonstrating IL-4 responses, DR7 / Percentage of donors demonstrating IL-10 responses, DR7 / Percentage of donors demonstrating TNF-α responses, DR7: DR7 donors N=4; for Percentage of donors demonstrating IFN-γ responses, DR8 / Percentage of donors demonstrating IL-2 responses, DR8 / Percentage of donors demonstrating IL-4 responses, DR8 / Percentage of donors demonstrating IL-10 responses, DR8 / Percentage of donors demonstrating TNF-α responses, DR8: DR8 donors N=4; for Percentage of donors demonstrating IFN-γ responses, DR9 / Percentage of donors demonstrating IL-2 responses, DR9 / Percentage of donors demonstrating IL-4 responses, DR9 / Percentage of donors demonstrating IL-10 responses, DR9 / Percentage of donors demonstrating TNF-α responses, DR9: DR9 donors N=4; for Percentage of donors demonstrating IFN-γ responses, DR11 / Percentage of donors demonstrating IL-2 responses, DR11 / Percentage of donors demonstrating IL-4 responses, DR11 / Percentage of donors demonstrating IL-10 responses, DR11 / Percentage of donors demonstrating TNF-α responses, DR11: DR11 donors N=4; for Percentage of donors demonstrating IFN-γ responses, DR13 / Percentage of donors demonstrating IL-2 responses, DR13 / Percentage of donors demonstrating IL-4 responses, DR13 / Percentage of donors demonstrating IL-10 responses, DR13 / Percentage of donors demonstrating TNF-α responses, DR13: DR13 donors N=7; for Percentage of donors demonstrating IFN-γ responses, DR15 / Percentage of donors demonstrating IL-2 responses, DR15 / Percentage of donors demonstrating IL-4 responses, DR15 / Percentage of donors demonstrating IL-10 responses, DR15 / Percentage of donors demonstrating TNF-α responses, DR15: DR15 donors N=7

DKHIEKYLKRIQNSLSTEWS [ICS9]
Percentage of donors demonstrating IFN-γ responses, DR1: 40% | Percentage of donors demonstrating IL-2 responses, DR1: 20% | Percentage of donors demonstrating IL-4 responses, DR1: 0% | Percentage of donors demonstrating IL-10 responses, DR1: 0% | Percentage of donors demonstrating TNF-α responses, DR1: 40% | Percentage of donors demonstrating IFN-γ responses, DR3: 50% | Percentage of donors demonstrating IL-2 responses, DR3: 33% | Percentage of donors demonstrating IL-4 responses, DR3: 33% | Percentage of donors demonstrating IL-10 responses, DR3: 17% | Percentage of donors demonstrating TNF-α responses, DR3: 50% | Percentage of donors demonstrating IFN-γ responses, DR4: 70% | Percentage of donors demonstrating IL-2 responses, DR4: 50% | Percentage of donors demonstrating IL-4 responses, DR4: 0% | Percentage of donors demonstrating IL-10 responses, DR4: 10% | Percentage of donors demonstrating TNF-α responses, DR4: 70% | Percentage of donors demonstrating IFN-γ responses, DR7: 75% | Percentage of donors demonstrating IL-2 responses, DR7: 50% | Percentage of donors demonstrating IL-4 responses, DR7: 25% | Percentage of donors demonstrating IL-10 responses, DR7: 0% | Percentage of donors demonstrating TNF-α responses, DR7: 50% | Percentage of donors demonstrating IFN-γ responses, DR8: 50% | Percentage of donors demonstrating IL-2 responses, DR8: 75% | Percentage of donors demonstrating IL-4 responses, DR8: 0% | Percentage of donors demonstrating IL-10 responses, DR8: 0% | Percentage of donors demonstrating TNF-α responses, DR8: 100% | Percentage of donors demonstrating IFN-γ responses, DR9: 50% | Percentage of donors demonstrating IL-2 responses, DR9: 50% | Percentage of donors demonstrating IL-4 responses, DR9: 0% | Percentage of donors demonstrating IL-10 responses, DR9: 0% | Percentage of donors demonstrating TNF-α responses, DR9: 50% | Percentage of donors demonstrating IFN-γ responses, DR11: 75% | Percentage of donors demonstrating IL-2 responses, DR11: 50% | Percentage of donors demonstrating IL-4 responses, DR11: 0% | Percentage of donors demonstrating IL-10 responses, DR11: 0% | Percentage of donors demonstrating TNF-α responses, DR11: 75% | Percentage of donors demonstrating IFN-γ responses, DR13: 43% | Percentage of donors demonstrating IL-2 responses, DR13: 43% | Percentage of donors demonstrating IL-4 responses, DR13: 0% | Percentage of donors demonstrating IL-10 responses, DR13: 14% | Percentage of donors demonstrating TNF-α responses, DR13: 57% | Percentage of donors demonstrating IFN-γ responses, DR15: 57% | Percentage of donors demonstrating IL-2 responses, DR15: 43% | Percentage of donors demonstrating IL-4 responses, DR15: 14% | Percentage of donors demonstrating IL-10 responses, DR15: 43% | Percentage of donors demonstrating TNF-α responses, DR15: 43%

DQHIEKYLKTIKNSLSTEWS [ICS10]
Percentage of donors demonstrating IFN-γ responses, DR1: 20% | Percentage of donors demonstrating IL-2 responses, DR1: 0% | Percentage of donors demonstrating IL-4 responses, DR1: 0% | Percentage of donors demonstrating IL-10 responses, DR1: 0% | Percentage of donors demonstrating TNF-α responses, DR1: 0% | Percentage of donors demonstrating IFN-γ responses, DR3: 33% | Percentage of donors demonstrating IL-2 responses, DR3: 17% | Percentage of donors demonstrating IL-4 responses, DR3: 17% | Percentage of donors demonstrating IL-10 responses, DR3: 0% | Percentage of donors demonstrating TNF-α responses, DR3: 17% | Percentage of donors demonstrating IFN-γ responses, DR4: 40% | Percentage of donors demonstrating IL-2 responses, DR4: 30% | Percentage of donors demonstrating IL-4 responses, DR4: 0% | Percentage of donors demonstrating IL-10 responses, DR4: 10% | Percentage of donors demonstrating TNF-α responses, DR4: 10% | Percentage of donors demonstrating IFN-γ responses, DR7: 75% | Percentage of donors demonstrating IL-2 responses, DR7: 25% | Percentage of donors demonstrating IL-4 responses, DR7: 0% | Percentage of donors demonstrating IL-10 responses, DR7: 25% | Percentage of donors demonstrating TNF-α responses, DR7: 25% | Percentage of donors demonstrating IFN-γ responses, DR8: 0% | Percentage of donors demonstrating IL-2 responses, DR8: 0% | Percentage of donors demonstrating IL-4 responses, DR8: 0% | Percentage of donors demonstrating IL-10 responses, DR8: 0% | Percentage of donors demonstrating TNF-α responses, DR8: 0% | Percentage of donors demonstrating IFN-γ responses, DR9: 25% | Percentage of donors demonstrating IL-2 responses, DR9: 25% | Percentage of donors demonstrating IL-4 responses, DR9: 0% | Percentage of donors demonstrating IL-10 responses, DR9: 0% | Percentage of donors demonstrating TNF-α responses, DR9: 25% | Percentage of donors demonstrating IFN-γ responses, DR11: 50% | Percentage of donors demonstrating IL-2 responses, DR11: 50% | Percentage of donors demonstrating IL-4 responses, DR11: 0% | Percentage of donors demonstrating IL-10 responses, DR11: 0% | Percentage of donors demonstrating TNF-α responses, DR11: 25% | Percentage of donors demonstrating IFN-γ responses, DR13: 29% | Percentage of donors demonstrating IL-2 responses, DR13: 14% | Percentage of donors demonstrating IL-4 responses, DR13: 0% | Percentage of donors demonstrating IL-10 responses, DR13: 0% | Percentage of donors demonstrating TNF-α responses, DR13: 14% | Percentage of donors demonstrating IFN-γ responses, DR15: 57% | Percentage of donors demonstrating IL-2 responses, DR15: 14% | Percentage of donors demonstrating IL-4 responses, DR15: 14% | Percentage of donors demonstrating IL-10 responses, DR15: 0% | Percentage of donors demonstrating TNF-α responses, DR15: 14%

DQHIEQYLKKIQNSISTEWS [ICS3]
Percentage of donors demonstrating IFN-γ responses, DR1: 80% | Percentage of donors demonstrating IL-2 responses, DR1: 80% | Percentage of donors demonstrating IL-4 responses, DR1: 0% | Percentage of donors demonstrating IL-10 responses, DR1: 20% | Percentage of donors demonstrating TNF-α responses, DR1: 60% | Percentage of donors demonstrating IFN-γ responses, DR3: 33% | Percentage of donors demonstrating IL-2 responses, DR3: 0% | Percentage of donors demonstrating IL-4 responses, DR3: 17% | Percentage of donors demonstrating IL-10 responses, DR3: 17% | Percentage of donors demonstrating TNF-α responses, DR3: 0% | Percentage of donors demonstrating IFN-γ responses, DR4: 30% | Percentage of donors demonstrating IL-2 responses, DR4: 40% | Percentage of donors demonstrating IL-4 responses, DR4: 10% | Percentage of donors demonstrating IL-10 responses, DR4: 0% | Percentage of donors demonstrating TNF-α responses, DR4: 40% | Percentage of donors demonstrating IFN-γ responses, DR7: 75% | Percentage of donors demonstrating IL-2 responses, DR7: 50% | Percentage of donors demonstrating IL-4 responses, DR7: 0% | Percentage of donors demonstrating IL-10 responses, DR7: 0% | Percentage of donors demonstrating TNF-α responses, DR7: 50% | Percentage of donors demonstrating IFN-γ responses, DR8: 0% | Percentage of donors demonstrating IL-2 responses, DR8: 0% | Percentage of donors demonstrating IL-4 responses, DR8: 0% | Percentage of donors demonstrating IL-10 responses, DR8: 0% | Percentage of donors demonstrating TNF-α responses, DR8: 25% | Percentage of donors demonstrating IFN-γ responses, DR9: 0% | Percentage of donors demonstrating IL-2 responses, DR9: 0% | Percentage of donors demonstrating IL-4 responses, DR9: 0% | Percentage of donors demonstrating IL-10 responses, DR9: 0% | Percentage of donors demonstrating TNF-α responses, DR9: 25% | Percentage of donors demonstrating IFN-γ responses, DR11: 25% | Percentage of donors demonstrating IL-2 responses, DR11: 25% | Percentage of donors demonstrating IL-4 responses, DR11: 0% | Percentage of donors demonstrating IL-10 responses, DR11: 0% | Percentage of donors demonstrating TNF-α responses, DR11: 50% | Percentage of donors demonstrating IFN-γ responses, DR13: 0% | Percentage of donors demonstrating IL-2 responses, DR13: 0% | Percentage of donors demonstrating IL-4 responses, DR13: 0% | Percentage of donors demonstrating IL-10 responses, DR13: 0% | Percentage of donors demonstrating TNF-α responses, DR13: 14% | Percentage of donors demonstrating IFN-γ responses, DR15: 14% | Percentage of donors demonstrating IL-2 responses, DR15: 14% | Percentage of donors demonstrating IL-4 responses, DR15: 0% | Percentage of donors demonstrating IL-10 responses, DR15: 14% | Percentage of donors demonstrating TNF-α responses, DR15: 29%

Reference: PMC8217813, “Bridging Computational Vaccinology and Vaccine Development Through Systematic Identification, Characterization, and Downselection of Conserved and Variable Circumsporozoite Protein CD4 T Cell Epitopes From Diverse Plasmodium falciparum Strains” (Frontiers in Immunology, 2021)
